This assay has as its target T1, P2Y12 receptor (Homo sapiens, UniProt Q9H244).
T1 construct: expressed in transfected cells; host or cells: CHO cells (membranes)
As to the kind of experiment: Functional inhibition of 2-Me-S-ADP induced P2Y12 signalling (35S-GTPγS, membranes from P2Y12 transfected CHO-cells). It counts as biochemical. The note with it: EC80 concentration of agonist 2-methyl-thio-adenosine diphosphate, 30° C. for 45 min. As for the experimental part:
Functional inhibition of the P2Y12 receptor can be measured by in vitro assays using cell membranes from P2Y12 transfected CHO-cells, the methodology is indicated below.
Functional inhibition of 2-Me-S-ADP induced P2Y12 signalling: 5 μg of membranes were diluted in 200 μl of 200 mM NaCl, 1 mM MgCl2, 50 mM HEPES (pH 7.4), 0.01% BSA, 30 μg/ml saponin and 10 μM GDP. To this was added an EC80 concentration of agonist (2-methyl-thio-adenosine diphosphate), the required concentration of test compound and 0.1 μCi ^35S-GTPγS. The reaction was allowed to proceed at 30° C. for 45 min. Samples were then transferred on to GF/B filters using a cell harvester and washed is with wash buffer (50 mM Tris (pH 7.4), 5 mM MgCl2, 50 mM NaCl). Filters were then covered with scintilant and counted for the amount of ^35S-GTPγS retained by the filter. Maximum activity was that determined in the presence of the agonist and minimum activity in the absence of the agonist following subtraction of the value determined for non-specific activity. The effect of compounds at various concentrations was plotted according to the equation
y=A+((B−A)/(1+((C/x)̂D)))
and IC50 estimated where A is the bottom plateau of the curve i.e. the final minimum y value B is the top of the plateau of the curve i.e. the final maximum y value C is the x value at the middle of the curve. […]

The values that follow come from US20090286834A1, “Pyridine Analogues VI” (AstraZeneca AB, priority 2006, published 2009).

T1 sequence (Q9H244 whole entry): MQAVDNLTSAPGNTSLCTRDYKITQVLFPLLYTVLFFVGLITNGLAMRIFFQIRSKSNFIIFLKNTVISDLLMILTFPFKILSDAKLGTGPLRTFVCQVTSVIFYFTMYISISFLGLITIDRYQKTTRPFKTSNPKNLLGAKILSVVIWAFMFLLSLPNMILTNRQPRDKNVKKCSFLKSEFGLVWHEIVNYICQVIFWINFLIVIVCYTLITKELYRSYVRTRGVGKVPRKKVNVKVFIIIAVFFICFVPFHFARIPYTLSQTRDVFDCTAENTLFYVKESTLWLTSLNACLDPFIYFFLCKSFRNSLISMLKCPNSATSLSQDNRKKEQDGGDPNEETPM

In turn, `CCOC(=O)c1cc(C#N)c(NC2CCC(C(=O)NS(=O)(=O)c3ccc(Cl)s3)C2)nc1C(F)(F)F` (stereo not shown) [Example 3, Ethyl 6-{[3-({[(5-chloro-2-thienyl)sulfonyl]amino}carbonyl)cyclopentyl]amino}-5-cyano-2-(trifluoromethyl)nicotinate] had an IC50 of 810 nM.
